Reference: the kinase profiling compilation of Christmann-Franck et al. (2016)
Blank lines part the entries; values can stand above or below the compound they belong to.

Key:
Experiment in all cases: radiometric filter-binding kinase assay
[1] = tested on: AKT1 (human), P31749 [S473D]
BRSK2 (human) = BRSK2 (human) (UniProt Q8IWQ3)
BTK (human) = BTK (human) (UniProt Q06187)
CSK (human) = CSK (human) (UniProt P41240)
CSNK1D (human) = CSNK1D (human) (UniProt P48730)
EEF2K (human) = EEF2K (human) (UniProt O00418)
FGFR1 (human) = FGFR1 (human) (UniProt P11362)
GSK3B (human) = GSK3B (human) (UniProt P49841)
MAPK1 (human) = MAPK1 (human) (UniProt P28482)
Chain of MAPK1 (human) (P28482 whole entry, looked up): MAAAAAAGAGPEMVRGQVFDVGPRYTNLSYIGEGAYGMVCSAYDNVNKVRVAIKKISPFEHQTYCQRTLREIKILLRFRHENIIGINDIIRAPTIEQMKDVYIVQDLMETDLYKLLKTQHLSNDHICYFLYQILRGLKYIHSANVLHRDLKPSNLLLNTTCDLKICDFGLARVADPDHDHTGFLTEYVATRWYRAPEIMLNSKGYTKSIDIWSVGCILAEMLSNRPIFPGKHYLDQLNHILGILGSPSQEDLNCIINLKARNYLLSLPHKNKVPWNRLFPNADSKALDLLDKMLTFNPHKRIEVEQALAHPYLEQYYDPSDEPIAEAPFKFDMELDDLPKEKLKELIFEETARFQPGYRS

MAPK15 (human) = MAPK15 (human) (UniProt Q8TD08)
MAPK3 (human) = MAPK3 (human) (UniProt P27361)
MAPK8 (human) = MAPK8 (human) (UniProt P45983)
Chain of MAPK8 (human) (P45983 whole entry, looked up): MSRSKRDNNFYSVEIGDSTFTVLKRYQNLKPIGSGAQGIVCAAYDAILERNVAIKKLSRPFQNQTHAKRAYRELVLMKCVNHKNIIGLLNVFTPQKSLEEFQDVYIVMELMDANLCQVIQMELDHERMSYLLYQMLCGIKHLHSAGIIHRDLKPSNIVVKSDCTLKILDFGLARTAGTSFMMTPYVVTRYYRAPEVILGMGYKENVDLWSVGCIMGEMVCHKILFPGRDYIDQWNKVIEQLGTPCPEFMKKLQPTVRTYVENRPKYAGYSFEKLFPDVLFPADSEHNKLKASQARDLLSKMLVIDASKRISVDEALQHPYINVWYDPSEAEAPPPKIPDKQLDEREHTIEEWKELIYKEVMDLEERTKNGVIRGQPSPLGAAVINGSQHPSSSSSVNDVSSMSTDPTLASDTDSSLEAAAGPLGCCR

MAPK9 (human) = MAPK9 (human) (UniProt P45984)
Chain of MAPK9 (human) (P45984 whole entry, looked up): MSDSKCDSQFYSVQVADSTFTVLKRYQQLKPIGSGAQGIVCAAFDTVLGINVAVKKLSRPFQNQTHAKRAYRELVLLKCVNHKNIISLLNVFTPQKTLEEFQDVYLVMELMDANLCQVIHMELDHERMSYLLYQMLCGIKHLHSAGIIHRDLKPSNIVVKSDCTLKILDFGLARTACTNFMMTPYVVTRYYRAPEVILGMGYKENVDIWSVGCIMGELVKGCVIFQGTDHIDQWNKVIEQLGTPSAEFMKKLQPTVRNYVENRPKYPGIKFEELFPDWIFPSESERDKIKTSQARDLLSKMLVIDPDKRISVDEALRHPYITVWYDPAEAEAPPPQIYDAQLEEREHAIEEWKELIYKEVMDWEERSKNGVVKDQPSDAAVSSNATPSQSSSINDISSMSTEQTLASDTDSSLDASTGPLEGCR

MKNK2 (human) = MKNK2 (human) (UniProt Q9HBH9)
NEK6 (human) = NEK6 (human) (UniProt Q9HC98)
Chain of NEK6 (human) (Q9HC98 whole entry, looked up): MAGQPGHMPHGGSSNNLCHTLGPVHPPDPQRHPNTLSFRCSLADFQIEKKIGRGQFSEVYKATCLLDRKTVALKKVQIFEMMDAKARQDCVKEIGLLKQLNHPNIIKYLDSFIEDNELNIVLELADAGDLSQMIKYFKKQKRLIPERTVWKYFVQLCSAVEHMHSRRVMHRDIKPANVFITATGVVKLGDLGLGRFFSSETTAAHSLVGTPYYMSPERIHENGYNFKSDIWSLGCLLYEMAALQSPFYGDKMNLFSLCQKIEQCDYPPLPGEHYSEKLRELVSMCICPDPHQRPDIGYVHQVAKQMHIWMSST

PAK7 (human) = PAK7 (human) (UniProt Q9P286)
PLK1 (human) = PLK1 (human) (UniProt P53350)
RPS6KA3 KD1 KD2 (human) = RPS6KA3 KD1 KD2 (human) (UniProt P51812)
RPS6KA5 KD1 KD2 (human) = RPS6KA5 KD1 KD2 (human) (UniProt O75582)
Chain of RPS6KA5 KD1 KD2 (human) (O75582 whole entry, looked up): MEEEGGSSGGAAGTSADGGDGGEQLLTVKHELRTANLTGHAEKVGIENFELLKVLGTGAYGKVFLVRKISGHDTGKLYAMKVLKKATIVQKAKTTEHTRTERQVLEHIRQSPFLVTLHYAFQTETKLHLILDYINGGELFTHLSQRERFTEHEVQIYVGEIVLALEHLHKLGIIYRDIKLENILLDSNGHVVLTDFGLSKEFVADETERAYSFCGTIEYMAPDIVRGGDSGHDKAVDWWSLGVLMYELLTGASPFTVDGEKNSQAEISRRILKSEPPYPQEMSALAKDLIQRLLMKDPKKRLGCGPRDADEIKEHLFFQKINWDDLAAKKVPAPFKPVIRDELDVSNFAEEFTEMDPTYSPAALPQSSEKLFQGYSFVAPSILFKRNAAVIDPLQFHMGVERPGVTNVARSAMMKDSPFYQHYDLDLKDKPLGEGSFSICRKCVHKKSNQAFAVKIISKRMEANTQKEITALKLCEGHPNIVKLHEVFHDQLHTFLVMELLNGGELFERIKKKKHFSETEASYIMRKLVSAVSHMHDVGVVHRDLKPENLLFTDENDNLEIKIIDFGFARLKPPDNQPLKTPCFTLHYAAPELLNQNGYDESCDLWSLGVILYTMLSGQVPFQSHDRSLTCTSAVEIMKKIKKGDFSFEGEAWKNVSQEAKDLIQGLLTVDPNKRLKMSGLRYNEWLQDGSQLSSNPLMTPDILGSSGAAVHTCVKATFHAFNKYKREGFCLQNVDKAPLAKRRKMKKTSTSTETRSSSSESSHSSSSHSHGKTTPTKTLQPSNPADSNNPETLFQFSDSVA

SRPK1 (human) = SRPK1 (human) (UniProt Q96SB4)
TBK1 (human) = TBK1 (human) (UniProt Q9UHD2)
Chain of TBK1 (human) (Q9UHD2 whole entry, looked up): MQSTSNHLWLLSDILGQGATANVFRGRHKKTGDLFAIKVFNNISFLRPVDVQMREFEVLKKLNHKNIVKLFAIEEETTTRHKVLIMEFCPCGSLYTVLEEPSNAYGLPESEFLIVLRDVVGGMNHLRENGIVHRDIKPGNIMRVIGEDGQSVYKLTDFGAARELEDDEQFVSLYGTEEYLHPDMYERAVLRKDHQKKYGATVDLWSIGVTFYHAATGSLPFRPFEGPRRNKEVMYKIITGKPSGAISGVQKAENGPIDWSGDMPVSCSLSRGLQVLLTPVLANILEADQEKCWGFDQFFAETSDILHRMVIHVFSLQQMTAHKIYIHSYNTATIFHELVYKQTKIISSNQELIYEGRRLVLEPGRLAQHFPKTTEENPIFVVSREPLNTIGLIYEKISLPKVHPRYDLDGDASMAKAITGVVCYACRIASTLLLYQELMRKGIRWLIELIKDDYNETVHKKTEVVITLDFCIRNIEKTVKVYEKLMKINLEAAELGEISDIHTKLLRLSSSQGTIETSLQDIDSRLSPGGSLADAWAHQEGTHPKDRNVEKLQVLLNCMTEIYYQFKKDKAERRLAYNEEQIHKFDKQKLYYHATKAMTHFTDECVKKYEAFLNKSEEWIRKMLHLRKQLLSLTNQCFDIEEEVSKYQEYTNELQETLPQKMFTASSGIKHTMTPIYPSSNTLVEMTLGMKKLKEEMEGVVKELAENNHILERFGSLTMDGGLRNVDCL

Chain of BTK (human) (Q06187 whole entry, looked up): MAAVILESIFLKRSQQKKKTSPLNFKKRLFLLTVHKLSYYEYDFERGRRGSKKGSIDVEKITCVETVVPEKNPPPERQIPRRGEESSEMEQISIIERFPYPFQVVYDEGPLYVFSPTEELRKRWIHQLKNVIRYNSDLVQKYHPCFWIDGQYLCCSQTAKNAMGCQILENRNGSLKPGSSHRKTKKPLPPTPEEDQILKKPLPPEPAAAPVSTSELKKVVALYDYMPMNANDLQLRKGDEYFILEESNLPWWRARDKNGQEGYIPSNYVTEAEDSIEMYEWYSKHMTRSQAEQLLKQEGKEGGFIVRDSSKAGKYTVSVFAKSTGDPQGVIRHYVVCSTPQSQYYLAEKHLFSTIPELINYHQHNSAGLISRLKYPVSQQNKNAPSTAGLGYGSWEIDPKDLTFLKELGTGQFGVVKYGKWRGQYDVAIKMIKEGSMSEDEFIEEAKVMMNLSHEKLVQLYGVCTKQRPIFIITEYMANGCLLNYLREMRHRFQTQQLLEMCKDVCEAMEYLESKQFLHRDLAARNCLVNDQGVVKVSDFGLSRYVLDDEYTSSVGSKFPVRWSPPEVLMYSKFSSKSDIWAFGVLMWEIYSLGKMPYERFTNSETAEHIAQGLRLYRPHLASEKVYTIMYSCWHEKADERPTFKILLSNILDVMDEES
Chain of BRSK2 (human) (Q8IWQ3 whole entry, looked up): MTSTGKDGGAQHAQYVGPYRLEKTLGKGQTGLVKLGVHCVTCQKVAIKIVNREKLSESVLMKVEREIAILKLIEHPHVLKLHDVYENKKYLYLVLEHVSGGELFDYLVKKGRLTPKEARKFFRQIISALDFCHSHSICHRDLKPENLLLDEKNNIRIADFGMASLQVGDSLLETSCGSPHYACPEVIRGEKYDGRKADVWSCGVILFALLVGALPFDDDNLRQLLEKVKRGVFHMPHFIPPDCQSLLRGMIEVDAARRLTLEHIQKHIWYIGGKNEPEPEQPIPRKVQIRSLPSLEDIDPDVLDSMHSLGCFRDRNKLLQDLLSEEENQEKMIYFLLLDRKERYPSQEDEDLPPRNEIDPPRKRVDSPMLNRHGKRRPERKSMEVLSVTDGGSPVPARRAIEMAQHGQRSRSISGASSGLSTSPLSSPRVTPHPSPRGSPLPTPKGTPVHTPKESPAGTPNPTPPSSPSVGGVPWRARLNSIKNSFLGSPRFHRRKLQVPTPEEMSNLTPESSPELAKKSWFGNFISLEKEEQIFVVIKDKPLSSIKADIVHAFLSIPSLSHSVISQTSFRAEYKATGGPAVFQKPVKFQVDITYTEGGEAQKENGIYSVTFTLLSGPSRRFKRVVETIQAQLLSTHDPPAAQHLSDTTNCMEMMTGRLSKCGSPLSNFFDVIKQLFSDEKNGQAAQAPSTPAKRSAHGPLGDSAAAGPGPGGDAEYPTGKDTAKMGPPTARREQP
Chain of CSNK1D (human) (P48730 whole entry, looked up): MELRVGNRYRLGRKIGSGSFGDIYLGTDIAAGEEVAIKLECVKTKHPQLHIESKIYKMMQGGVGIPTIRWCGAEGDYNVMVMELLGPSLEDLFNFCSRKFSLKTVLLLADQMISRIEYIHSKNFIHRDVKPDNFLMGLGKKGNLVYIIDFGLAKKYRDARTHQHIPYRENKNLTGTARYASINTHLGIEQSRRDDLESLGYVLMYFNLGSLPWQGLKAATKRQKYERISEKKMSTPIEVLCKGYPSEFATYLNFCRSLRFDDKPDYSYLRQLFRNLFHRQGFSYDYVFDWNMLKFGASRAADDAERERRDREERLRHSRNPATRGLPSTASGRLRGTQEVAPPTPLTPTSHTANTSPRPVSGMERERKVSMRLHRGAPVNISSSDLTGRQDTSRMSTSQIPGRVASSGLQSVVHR

residual activity ([1]; compound 1.0 µM): 87%
residual activity ([1]; compound 10.0 µM): 90%
residual activity (BRSK2 (human); compound 1.0 µM): 79%
residual activity (BRSK2 (human); compound 10.0 µM): 94%
residual activity (BTK (human); compound 1.0 µM): 84%
residual activity (BTK (human); compound 10.0 µM): 99%
residual activity (CSK (human); compound 1.0 µM): 101%
residual activity (CSK (human); compound 10.0 µM): 104%
residual activity (CSNK1D (human); compound 1.0 µM): 105%
residual activity (CSNK1D (human); compound 10.0 µM): 115%
residual activity (EEF2K (human); compound 1.0 µM): 75%
residual activity (EEF2K (human); compound 10.0 µM): 85%
residual activity (FGFR1 (human); compound 1.0 µM): 83%
residual activity (FGFR1 (human); compound 10.0 µM): 80%
residual activity (GSK3B (human); compound 1.0 µM): 99%
residual activity (GSK3B (human); compound 10.0 µM): 92%
residual activity (MAPK1 (human); compound 1.0 µM): 80%
residual activity (MAPK1 (human); compound 10.0 µM): 88%
residual activity (MAPK3 (human); compound 1.0 µM): 107%
residual activity (MAPK3 (human); compound 10.0 µM): 82%
residual activity (MAPK8 (human); compound 1.0 µM): 83%
residual activity (MAPK8 (human); compound 10.0 µM): 107%
residual activity (MAPK9 (human); compound 1.0 µM): 91%
residual activity (MAPK9 (human); compound 10.0 µM): 95%
residual activity (MKNK2 (human); compound 1.0 µM): 92%
residual activity (MKNK2 (human); compound 10.0 µM): 97%
residual activity (NEK6 (human); compound 1.0 µM): 83%
residual activity (NEK6 (human); compound 10.0 µM): 87%
residual activity (PAK7 (human); compound 1.0 µM): 97%
residual activity (PAK7 (human); compound 10.0 µM): 108%
residual activity (PLK1 (human); compound 1.0 µM): 97%
residual activity (PLK1 (human); compound 10.0 µM): 93%
residual activity (RPS6KA3 KD1 KD2 (human); compound 1.0 µM): 78%
residual activity (RPS6KA3 KD1 KD2 (human); compound 10.0 µM): 100%
residual activity (RPS6KA5 KD1 KD2 (human); compound 1.0 µM): 80%
residual activity (RPS6KA5 KD1 KD2 (human); compound 10.0 µM): 87%
residual activity (SRPK1 (human); compound 1.0 µM): 100%
residual activity (SRPK1 (human); compound 10.0 µM): 98%
residual activity (TBK1 (human); compound 1.0 µM): 106%
residual activity (TBK1 (human); compound 10.0 µM): 94%
SMILES: O=C1NC(=S)N[C@@H]1Cc1c[nH]c2ccccc12
residual activity (MAPK15 (human); compound 1.0 µM): 104%
residual activity (MAPK15 (human); compound 10.0 µM): 94%

residual activity ([1]; compound 1.0 µM): 107%
residual activity ([1]; compound 10.0 µM): 105%
residual activity (BRSK2 (human); compound 1.0 µM): 91%
residual activity (BRSK2 (human); compound 10.0 µM): 78%
residual activity (BTK (human); compound 1.0 µM): 92%
residual activity (BTK (human); compound 10.0 µM): 95%
residual activity (CSK (human); compound 1.0 µM): 98%
residual activity (CSK (human); compound 10.0 µM): 97%
residual activity (CSNK1D (human); compound 1.0 µM): 82%
residual activity (CSNK1D (human); compound 10.0 µM): 80%
residual activity (EEF2K (human); compound 1.0 µM): 80%
residual activity (FGFR1 (human); compound 1.0 µM): 100%
residual activity (FGFR1 (human); compound 10.0 µM): 81%
residual activity (GSK3B (human); compound 1.0 µM): 87%
residual activity (GSK3B (human); compound 10.0 µM): 83%
residual activity (MAPK1 (human); compound 1.0 µM): 100%
residual activity (MAPK1 (human); compound 10.0 µM): 102%
residual activity (MAPK3 (human); compound 1.0 µM): 115%
residual activity (MAPK8 (human); compound 1.0 µM): 83%
residual activity (MAPK8 (human); compound 10.0 µM): 74%
residual activity (MAPK9 (human); compound 10.0 µM): 79%
residual activity (MKNK2 (human); compound 1.0 µM): 99%
residual activity (MKNK2 (human); compound 10.0 µM): 83%
residual activity (NEK6 (human); compound 1.0 µM): 101%
residual activity (PAK7 (human); compound 1.0 µM): 97%
residual activity (PAK7 (human); compound 10.0 µM): 111%
residual activity (PLK1 (human); compound 1.0 µM): 75%
residual activity (PLK1 (human); compound 10.0 µM): 60%
residual activity (RPS6KA3 KD1 KD2 (human); compound 1.0 µM): 94%
residual activity (RPS6KA5 KD1 KD2 (human); compound 1.0 µM): 96%
residual activity (RPS6KA5 KD1 KD2 (human); compound 10.0 µM): 92%
residual activity (SRPK1 (human); compound 1.0 µM): 96%
residual activity (SRPK1 (human); compound 10.0 µM): 87%
residual activity (TBK1 (human); compound 1.0 µM): 102%
residual activity (TBK1 (human); compound 10.0 µM): 88%
SMILES: Cc1cc(SCc2sc(-c3ccc(C(F)(F)F)cc3)nc2C)ccc1OCC(=O)O
residual activity (MAPK15 (human); compound 1.0 µM): 103%
residual activity (MAPK15 (human); compound 10.0 µM): 109%

residual activity ([1]; compound 1.0 µM): 87%
residual activity ([1]; compound 10.0 µM): 55%
residual activity (BRSK2 (human); compound 1.0 µM): 89%
residual activity (BRSK2 (human); compound 10.0 µM): 45%
residual activity (BTK (human); compound 1.0 µM): 100%
residual activity (BTK (human); compound 10.0 µM): 83%
residual activity (CSK (human); compound 1.0 µM): 91%
residual activity (CSK (human); compound 10.0 µM): 92%
residual activity (CSNK1D (human); compound 1.0 µM): 81%
residual activity (CSNK1D (human); compound 10.0 µM): 43%
residual activity (EEF2K (human); compound 1.0 µM): 88%
residual activity (EEF2K (human); compound 10.0 µM): 67%
residual activity (FGFR1 (human); compound 1.0 µM): 96%
residual activity (FGFR1 (human); compound 10.0 µM): 79%
residual activity (GSK3B (human); compound 1.0 µM): 126%
residual activity (GSK3B (human); compound 10.0 µM): 99%
residual activity (MAPK1 (human); compound 1.0 µM): 81%
residual activity (MAPK1 (human); compound 10.0 µM): 74%
residual activity (MAPK3 (human); compound 10.0 µM): 86%
residual activity (MAPK8 (human); compound 1.0 µM): 76%
residual activity (MAPK8 (human); compound 10.0 µM): 61%
residual activity (MAPK9 (human); compound 1.0 µM): 90%
residual activity (MAPK9 (human); compound 10.0 µM): 93%
residual activity (MKNK2 (human); compound 1.0 µM): 98%
residual activity (MKNK2 (human); compound 10.0 µM): 87%
residual activity (NEK6 (human); compound 1.0 µM): 98%
residual activity (NEK6 (human); compound 10.0 µM): 93%
residual activity (PAK7 (human); compound 1.0 µM): 82%
residual activity (PAK7 (human); compound 10.0 µM): 72%
residual activity (PLK1 (human); compound 1.0 µM): 83%
residual activity (PLK1 (human); compound 10.0 µM): 87%
residual activity (RPS6KA3 KD1 KD2 (human); compound 1.0 µM): 80%
residual activity (RPS6KA3 KD1 KD2 (human); compound 10.0 µM): 53%
residual activity (RPS6KA5 KD1 KD2 (human); compound 1.0 µM): 71%
residual activity (RPS6KA5 KD1 KD2 (human); compound 10.0 µM): 31%
residual activity (SRPK1 (human); compound 1.0 µM): 98%
residual activity (SRPK1 (human); compound 10.0 µM): 65%
residual activity (TBK1 (human); compound 1.0 µM): 91%
residual activity (TBK1 (human); compound 10.0 µM): 84%
SMILES: O=C1Nc2nc(-c3c(O)cccc3OCC3CC3)cc(C3CCCNC3)c2CO1 (stereo not given)
residual activity (MAPK15 (human); compound 1.0 µM): 53%
residual activity (MAPK15 (human); compound 10.0 µM): 10%
